Entries after “also recorded” stand apart in the source; their conditions may differ. Where two headings read alike, the source gives them in different places. Blank lines part the entries; values can stand above or below the compound they belong to. Where a SMILES comes first, the peptide text is derived from it.
Assays:
HeLa cells [1] = assay: Flow cytometry cellular uptake efficiency, HeLa; assay type: cell-based
Procedure: (§1) After washing with PBS, the cells were treated with the fluorescence-labeled peptide (sample) for 4 hours. Then, after washing twice with PBS, the cells were incubated with trypsin (1 mg/mL) for 15 minutes and the peptide bound to the cell surface was removed. The cells were centrifuged at 1,200 rpm for 5 minutes, washed twice with PBS and then suspended in a PBS buffer containing 10% non-enzymatic cell dissociation solution. The fluorescence intensity of the internalized peptide was measured using a BD LSR II flow cytometer (BD Biosciences, USA).
(§2) The cell-penetrating peptides (CPP10, CPP11 and Tat) were labeled with FAM (5 (6)-carboxyfluorescein) at the N-terminal. MFI stands for mean fluorescence intensity. Untreated cells were used as control groups (cell only). The cellular uptake efficiency refers to the degree of penetration into cells.
Flow cytometry was performed after treating Hela cells with the cell-penetrating peptide prepared in Example 11 (CPP11) of different concentrations (4 μM, 30 μM, 60 μM, 90 μM, 120 μM, 270 μM and 500 μM).

HCT116 cells = assay: Flow cytometry cellular uptake efficiency, HCT116; assay type: cell-based; settings: HCT116, 30 μM, FAM-labeled
Procedure: as §1, §2

293T cells = assay: Flow cytometry cellular uptake efficiency, 293T; assay type: cell-based; settings: 30 μM, FAM-labeled
Procedure: as §1, §2

BALB/c nude mice [2] = assay: In-vivo fluorescence imaging (IVIS) of living mice, targeting
Procedure: All animal experimental procedures including sample administration and euthanasia were performed in accordance with the strict guidelines of the Yonsei University Health System Institutional Animal Care and Use Committee. Female 7-week BALB/c nude mice were purchased from Orient Bio Company (Korea). Fluorescence-labeled peptide (sample) (10 mg/kg) was injected via the lateral tail vein of the mice. Fluorescence images were acquired at different times (0, 4, 8 and 12 hours) using an in-vivo imaging system (IVIS; PerkinElmer, USA) and the images were analyzed with the Living Image software (PerkinElmer).
Female 7-week-old BALB/c nude mice were injected IV (intravenously) with the cell-penetrating peptide prepared in Example 10 (CPP10) at 10 mg/kg or 1 mg/kg via the lateral tail vein and imaged using IVIS (in-vivo imaging system) (PerkinElmer, USA) 4 hours later. The images were analyzed with the Living Image software (PerkinElmer). The mice were analyzed from the top, bottom (belly) and side positions (FIG. 44A). Then, after administering the same volume of the cell-penetrating peptide prepared in Example 10 (CPP10) at 10 mg/kg via IV (intravenous) or IP (intraperitoneal) injection, the mice were imaged 4 hours later (FIG. 44B).
Next, female 7-week-old BALB/c nude mice were injected IV (intravenously) with the cell-penetrating peptide of Example 10 (CPP10), the cell-penetrating peptide of Example 11 (CPP11) or the cell-penetrating peptide of Example 14 (CPP11d) at 10 mg/kg via the lateral tail vein, and they were imaged 30 minutes and 6 hours later using IVIS (in-vivo imaging system) (PerkinElmer, USA). The images were analyzed with the Living Image software (PerkinElmer) (FIG. 44C). In FIGS. 44A and 44B, the cell-penetrating peptides were labeled with TAMRA (5 (6)-carboxytetramethylrhodamine). In FIG. 44C, the cell-penetrating peptides were labeled with FAM.
The images were analyzed with the Living Image software (PerkinElmer) (FIGS. 50 and 51).
The cell-penetrating peptide prepared in Example 11 (CPP11) was also administered at the same concentration and then analyzed by IVIS 1 hour later (FIG. 51). The cell-penetrating peptide was used after labeling with FAM.
4 hours later, the mice were imaged using IVIS (in-vivo imaging system) (PerkinElmer, USA) and the images were analyzed with the Living Image software (PerkinElmer) (FIG. 53).
The cell-penetrating peptide prepared in Example 11 (CPP11) was also administered at the same concentration and then analyzed by IVIS 1 hour later (FIG. 53). The cell-penetrating peptide was used after labeling with FAM.
Female 7-week-old BALB/c nude mice were injected IV (intravenously) with 200 μL of the cell-penetrating peptide of Example 11 (CPP11) or the existing cell-penetrating peptides (Rev ARM, Tat, penetratin and R8) at 5 mg/kg via the lateral tail vein. 4 hours later, the mice were imaged using IVIS (in-vivo imaging system) (PerkinElmer, USA) and the images were analyzed with the Living Image software (PerkinElmer) (FIGS. 54 and 55). The cell-penetrating peptides were used after labeling with FAM.

HeLa cells [3] = assay: Cytotoxicity analysis with WST-8 reagent; settings: 24 hours, various concentrations
Procedure: (§3) Cytotoxicity was analyzed using the WST-8 (5-(2,4-disulfophenyl)-3-(2-methoxy-4-nitrophenyl)-2-(4-nitrophenyl)-2H-tetrazolium, water-soluble tetrazolium). First, HeLa cells were inoculated onto a 96-well plate (5,000 cells/well) and cultured for 24 hours in a DMEM medium containing 10% FBS. After washing with PBS, the peptide (sample) of various concentrations was added to Opti-MEM. 24 hours later, the WST-8 reagent was added and incubation was conducted for 1 hour. Then, WST-8 formazan was quantified using a Victor X5 multilabel plate reader (Perkin Elmer, USA).

[4] = CD spectroscopy of cell-penetrating peptides (helicity); settings: for secondary structure / helix stabilization by CD: 10 mM potassium phosphate, pH 7.4, 20° C.
Procedure: The concentration of peptides/proteins was 5-20 μM in general. Spectra were obtained using a Jasco J-1500 CD spectrometer (JASCO, Japan) or a Chirascan CD spectrometer (Applied Photophysics, UK). Scanning was carried out using a cuvette with a path length of 1 mm. MRE (mean residue ellipticity) was calculated per amino acid residue.
The cell-penetrating peptides (CPP1 TO 13 and CPP11d) were dissolved respectively in 10 mM potassium phosphate. The analysis was performed under the condition of pH 7.4 and 20° C.

[5] = CD equilibrium thermal unfolding; assay type: physicochemical; settings: CD at 4-84° C., two-state coil-helix transition
Procedure: For the cell-penetrating peptide prepared in Example 11 (CPP11), CD spectra were measured under various temperature conditions (4° C., 20° C., 36° C., 52° C., 68° C. and 84° C.) to analyze thermal stability through equilibrium thermal unfolding.

HeLa cells [6] = assay: Cellular localization by CLSM; assay type: cell-based; settings: 10 μM FAM-labeled, 2 hours, DAPI
Procedure: A DMEM medium containing 10% FBS and an 8-well Lab-Tek II chamber slide (Thermo Fisher Scientific, USA) were prepared. […] […] The cultured cells were washed 5 times with PBS. The living cells were visualized using an LSM 880 confocal microscope (Carl Zeiss, Germany).
The cell-penetrating peptides were labeled with FAM.

BALB/c nude mice [7] = assay: IVIS imaging of extracted organs, head and cochlea after IV injection; assay type: in vivo
Procedure: After extracting major organs (ear, brain, heart, lung, liver, spleen and kidney) from the euthanized experimental animals, the tissues were imaged using IVIS (in-vivo imaging system) (PerkinElmer, USA) and the images were analyzed with the Living Image software (PerkinElmer).

IIB RNA = assay: UV melting analysis of IIB RNA and cRev-IIB complex; assay type: physicochemical, HIV-1; settings: 260 nm; cRev/IIB ratio 1; IIB RNA only as control
Procedure: UV melting experiments for free RNA (2 μM) and a protein-RNA complex (1:1 molar ratio) were conducted using an Agilent 8453 diode array UV-Vis spectrophotometer equipped with a Peltier temperature controller. Spectra were measured at 260 nm using a cuvette with a path length of 1 cm under the heating rate condition of 2° C./min. The measurement was repeated 3 times and the average was taken. Prior to the measurement, the RNA sample was heated at 90° C. for 2 minutes and then annealed on ice. The melting temperature (Tm) was calculated with the Origin software (OriginLab, USA) using a two-state or multi-state model.
A complex (cRev-IIB complex) was prepared by mixing the cRev prepared in Preparation Example 2 with IIB RNA and UV melting experiment was performed. The cRev/IIB ratio was 1. For the control group (IIB RNA only), only IIB RNA was used without cRev.

HeLa cells [8] = test system: HeLa cells
Procedure: as §3

[9] = FAM-labeled, IV 10 mg/kg, 30 minutes and 6 hours
[10] = extracted organs, IV 10 mg/kg, 4 hours

in-vivo targeting site (BALB/c nude mice [2]; [9]): targeted the ear
Compound: C[C@H](NC(=O)[C@H](CCC(N)=O)NC(=O)C(C)(C)NC(=O)[C@H](C)NC(=O)C(C)(C)NC(=O)[C@H](CC(N)=O)NC(=O)[C@H](CCCNC(=N)N)NC(=O)[C@H](CCCNC(=N)N)NC(=O)[C@H](C)NC(=O)[C@H](CCC(N)=O)NC(=O)C(C)(C)NC(=O)[C@H](C)NC(=O)C(C)(C)NC(=O)[C@H](CC(N)=O)NC(=O)[C@H](CCCNC(=N)N)NC(=O)[C@H](CCCNC(=N)N)NC(=O)[C@H](C)NC(=O)[C@H](CCC(N)=O)NC(=O)C(C)(C)NC(=O)[C@H](C)NC(=O)C(C)(C)N)C(=O)N[C@@H](CCCNC(=N)N)C(=O)N[C@@H](CCCNC(=N)N)C(=O)N[C@@H](CC(N)=O)C(=O)NC(C)(C)C(=O)N[C@@H](C)C(=O)NC(C)(C)C(N)=O [CPP10] (HELM PEPTIDE1{[Aib].A.[Aib].Q.A.R.R.N.[Aib].A.[Aib].Q.A.R.R.N.[Aib].A.[Aib].Q.A.R.R.N.[Aib].A.[Aib].[am]}$$$$V2.0; N-terminus assumed)
cell-penetrating ability compared with Tat (HeLa cells [1]; HeLa, 30 μM, FAM-labeled): significantly superior
cell-penetrating ability compared with Tat (HCT116 cells): significantly superior
cell-penetrating ability compared with Tat (293T cells): significantly superior
targeting efficiency IV versus IP (BALB/c nude mice [2]; TAMRA-labeled, 10 mg/kg, 4 hours): higher targeting efficiency when administered by IV injection rather than by IP injection
in-vivo fluorescence distribution (BALB/c nude mice [2]; TAMRA-labeled, IV tail vein, 10 mg/kg or 1 mg/kg, 4 hours): bright fluorescence was observed in the ear
cytotoxicity (WST-8) (HeLa cells [3]): hardly show cytotoxicity
secondary structure / helix stabilization by CD [4]: significantly higher than those of CPP8 and CPP9

melting temperature (CD thermal unfolding) [5]: 39.4 °C
in-vivo targeting site (BALB/c nude mice [2]; [9]): targeted the ear
time to accumulation in the ear (BALB/c nude mice [7]; IV 10 mg/kg): ≤ 4 h
accumulation rate in the brain (BALB/c nude mice [7]; [10]): very low
main target organ (BALB/c nude mice [7]; [10]): targets mainly the ear
secondary structure / helix stabilization by CD [4]: perfect α-helical structure
dependence of [θ]222/[θ]208 on concentration ([4]; 5-200 μM, 20° C.): not affected by concentration
Compound: C[C@H](NC(=O)[C@H](CCC(N)=O)NC(=O)C(C)(C)NC(=O)[C@H](C)NC(=O)C(C)(C)NC(=O)[C@H](CC(N)=O)NC(=O)[C@H](CCCNC(=N)N)NC(=O)[C@H](CCCNC(=N)N)NC(=O)[C@H](C)NC(=O)[C@H](CCC(N)=O)NC(=O)C(C)(C)NC(=O)[C@H](C)NC(=O)C(C)(C)NC(=O)[C@H](CC(N)=O)NC(=O)[C@H](CCCNC(=N)N)NC(=O)[C@H](CCCNC(=N)N)NC(=O)[C@H](C)NC(=O)[C@H](CCC(N)=O)NC(=O)C(C)(C)NC(=O)[C@H](C)NC(=O)C(C)(C)NC(=O)[C@H](CC(N)=O)NC(=O)[C@H](CCCNC(=N)N)NC(=O)[C@H](CCCNC(=N)N)NC(=O)[C@H](C)NC(=O)[C@H](CCC(N)=O)NC(=O)C(C)(C)NC(=O)[C@H](C)NC(=O)C(C)(C)N)C(=O)N[C@@H](CCCNC(=N)N)C(=O)N[C@@H](CCCNC(=N)N)C(=O)N[C@@H](CC(N)=O)C(=O)NC(C)(C)C(=O)N[C@@H](C)C(=O)NC(C)(C)C(N)=O [CPP11] (HELM PEPTIDE1{[Aib].A.[Aib].Q.A.R.R.N.[Aib].A.[Aib].Q.A.R.R.N.[Aib].A.[Aib].Q.A.R.R.N.[Aib].A.[Aib].Q.A.R.R.N.[Aib].A.[Aib].[am]}$$$$V2.0; N-terminus assumed)
cellular uptake efficiency relative to Tat (HeLa cells [1]; HeLa, 30 μM, 4 hours, FAM-labeled, MFI): ≥ 4 times
MFI / uptake efficiency versus concentration (HeLa cells [1]; Hela cells, 4-500 μM): uptake efficiency increases gradually with the concentration
cellular uptake efficiency relative to Tat (HCT116 cells; 4 hours, MFI): ≥ 4 times
cellular uptake efficiency relative to Tat (293T cells; 4 hours, MFI): ≥ 4 times
cellular localization (HeLa cells [6]): mainly located outside the nucleus
accumulation efficiency in the ear (BALB/c nude mice [2]; FAM-labeled, IV 5 mg/kg, 1 hour, compared with CPP14, 15 and 17): much higher accumulation efficiency in the ear
bioaccumulation (BALB/c nude mice [2]; FAM-labeled, IV 5 mg/kg, 4 hours, comparison with existing CPPs): accumulated in the ear tissue at a significantly high level
excretion route (BALB/c nude mice [7]; IV 10 mg/kg, 4 hours): excreted out of the body through the liver and kidneys
accumulation in the head (outside and inside) (BALB/c nude mice [7]; IV 10 mg/kg, 4 hours, versus PBS, 10 mg/kg): accumulated effectively in the facial area, especially in the ear, in large quantities; also recorded: accumulated deeply not only in the ear but also in the nose
accumulation in heart, lung and spleen (BALB/c nude mice [7]; [10]): not accumulated in the heart, lung and spleen tissues
accumulation in the inner ear (cochlea) (BALB/c nude mice [7]; separated cochlea, IV, versus PBS (w/o treatment)): significantly remarkable accumulation in the inner ear (cochlea)
cytotoxicity (WST-8) (HeLa cells [3]): hardly show cytotoxicity

Compound: GGACCUGGUAUGGGCGCAGCGCAAGCUGACGGUACAGGCCAGGUCC (listed as RNA, chemistry not given here) [IIB RNA, stem-loop IIB region of HIV-1 RRE RNA]
Tm (UV melting) (IIB RNA): 60.6 °C

in-vivo targeting site (BALB/c nude mice [2]; mouse, in vivo, iv, 10 mg/kg): targeted the ear
secondary structure / helix stabilization by CD [4]: perfect left-handed helical conformation
Compound: UaUgarrnUaUqarrnUaUqarrnUaUqarrnUaU [CPP11d]
cytotoxicity (WST-8) (HeLa cells [8]): hardly show cytotoxicity

— patent US20240368230A1, “CELL-PENETRATING PEPTIDES COMPRISING MULTIPLE 5-MER ALPHA-HELIX FRAGMENTS AND USES THEREOF” (ArtProBio Co., Ltd., priority 2023, published 2024)
